For orientation: IC50 means the point on the concentration scale where inhibition reaches its midpoint.

In test [1] the test system is Mycobacterium tuberculosis. Put plainly: Antimycobacterial activity against Mycobacterium bovis BCG assessed as depletion of intracellular ATP level at 5 times antimycobacterial MIC after 20 hrs by luciferin/luciferase coupled reporter gene assay relative to control. In kind it is functional, variant bovis BCG. A general note: Reporter assays use an easily measured gene product as a stand-in for the process of interest.

Test [2] concerns Mycobacterium tuberculosis. As to the kind of experiment: Induction of membrane damage in Mycobacterium bovis BCG incubated for 60 mins under dark condition using DiOC2 probe by fluorescence assay. It is filed as organism-based. Particulars: variant bovis BCG, 1 h.

A value given as a limit tells only on which side of the number the result lay.

Turning to `COc1nc2ccc(Br)cc2cc1[C@@H](c1ccccc1)[C@@](O)(CCN(C)C)c1cccc2ccccc12` [BEDAQUILINE], the Activity in test [1] amounted to 76%. The compound also registered an IC50 in test [2] above 100 µM.
`CN(C)CCOc1ncc(Nc2cc(C(F)(F)F)nc3cc(-c4ccc(F)cc4)nn23)cc1F` showed a half-inhibitory concentration (IC50) in test [2] above 100 µM.
Turning to `CN(C)CCOc1ncc(Nc2cc(-c3ccccc3)nc3cc(-c4ccc(F)cc4)[nH]c23)cc1F`, the Activity in test [1] was 23%. This compound gave an IC50 in test [2] above 100 µM.
For `CCOc1ncc(Nc2cc(NCCC3CCOCC3)nc3cc(OC)c(OC)cc23)cc1F` the same measures were 5% and above 100 µM.
Consider `COc1cc2nc(N3CCC(c4ccccc4Cl)C3)cc(Nc3cnc(NCCN(C)C)c(F)c3)c2cc1OC` (stereo not drawn), for which the Activity in test [1] is recorded as 22%.
As for `CN(C)CCOc1ncc(Nc2cc(N3CCC(c4ccccc4Cl)C3)nc3cc(F)c(F)cc23)cc1F` (stereo not drawn), the Activity in test [1] is recorded as 25%. In test [2], this compound returned an IC50 above 100 µM.
For `CN(C)CCOc1ncc(Nc2cc(-c3ccccc3)nc3cc(-c4ccc(F)cc4)nn23)cc1F` the same measures were 25% and above 100 µM.
In turn, `COc1cc2nc(NCCC3CCOCC3)nc(Nc3cc(C(C)(C)C)n(C)n3)c2cc1OC` gave an IC50 in test [2] above 100 µM.
Still for that read-out and setting: the figure for `N#CC(C#N)=NNc1cccc(Cl)c1` [CARBONYL CYANIDE M-CHLOROPHENYLHYDRAZONE] is 3 µM.
Turning to `COc1cc2nc(N3CCC(c4ccccc4Cl)C3)cc(Nc3cnc(OCCN(C)C)c(F)c3)c2cc1OC` (stereo not drawn), in test [1], the Activity stood at 68%. The IC50 in test [2] is above 100 µM.
`CCOc1ncc(Nc2nc(NCCC3CCOCC3)nc3cc(OC)c(OC)cc23)cc1F`: the Activity in test [1] was determined as 31%.
Same read-out and setting: the figure for `NNC(=O)c1ccncc1` [ISONIAZID] is -6%.

These data come from ChEMBL document CHEMBL3817834, “Scaffold morphing leading to evolution of 2,4-diaminoquinolines and aminopyrazolopyrimidines as inhibitors of the ATP synthesis pathway” (Medchemcomm, 2016).
